# Laboratory results published in patent publication US9758529B2, “Fused dihydro-4H-pyrazolo[5,1-C][1,4]oxazinyl compounds and analogs for treating CNS disorders” (Sunovion Pharmaceuticals Inc., priority 2015, dated 2017).
# Tested on: mice
# Assay: Neuropharmacological Assay (SmartCube)
# Assay type: in vivo
# Details: i.p. 15 min before behavioral test; 3 doses, most efficacious dose(s) presented
# Excerpt: Neurosci. […] As reported in Roberds, because psychiatric diseases generally result from disorders of cell-cell communication or circuitry, intact systems are useful in detecting improvement in disease-relevant endpoints. These endpoints are typically behavioral in nature, often requiring human observation and interpretation. To facilitate testing of multiple compounds for behavioral effects relevant to psychiatric disease, PsychoGenics, Inc. (Tarrytown, N.Y., “PGI”) developed SmartCube™, an automated system in which behaviors of compound-treated mice are captured by digital video and analyzed with computer algorithms. […] PGI Analytical Systems uses data from SmartCube™ to compare the behavioral signature of a test compound to a database of behavioral signatures obtained using a large set of diverse reference compounds. (The composition of the database as well as validation of the method is further described in Roberds). In this way, the neuropharmacological effects of a test compound can be predicted by similarity to major classes of compounds, such as antipsychotics, anxiolytics and antidepressants.
# The SmartCube™ system produces an activity signature indicating the probability that the activity of the test compound at the administered dose matches a given class of neuropharmacological agents. (See, e.g., Roberds, FIGS. 2 and 3). The test compound is simultaneously compared against multiple classes of agents; thus, a separate probability is generated for each behavioral effect measured (e.g., anxiolytic activity, analgesic activity, etc.). In Table 2 and 2B, these probabilities are reported for each behavioral effect measured as follows:
# where LOQ is the limit of quantification.
# Provided compounds were dissolved in a mixture of Pharmasolve™ (N-methyl-2-pyrrolidone), polyethylene glycol and propylene glycol, and were injected i.p. 15 min. before the behavioral test. For each compound, injections were administered at 3 different doses. For each behavioral effect measured, results for the most efficacious dose(s) are presented.
SMILES,AD: ADHD (probability of class match),AG: analgesic (probability of class match),AX: anxiolytic (probability of class match),CE: cognitive enhancer (probability of class match),DP: anti-depressant (probability of class match),HA: hallucinogen (probability of class match),MS: mood stabilizer (probability of class match),PS: anti-psychotic (probability of class match),SD: sedative hypnotic (probability of class match),UN: uncharacterized CNS activity (probability of class match)
"CNC[C@H]1OCCn2nc3ccccc3c21.Cl [Compound 2, (R)-(3,4-dihydro-1H-[1,4]oxazino[4,3-b]indazol-1-yl)-N-methylmethanaminium chloride]",++ (5%≦ ++ <25%),+ (LOQ≦ + <5%),++ (5%≦ ++ <25%),+ (LOQ≦ + <5%),++++ (50%≦ ++++),++++ (50%≦ ++++),+ (LOQ≦ + <5%),+ (LOQ≦ + <5%),+ (LOQ≦ + <5%),+ (LOQ≦ + <5%)
"CN(C)C[C@@H]1OCCn2nc3ccccc3c21 [Compound 3, (S)-(3,4-dihydro-1H-[1,4]oxazino[4,3-b]indazol-1-yl)-N,N-dimethylmethanaminium chloride]",+ (LOQ≦ + <5%),+ (LOQ≦ + <5%),+ (LOQ≦ + <5%),+ (LOQ≦ + <5%),++ (5%≦ ++ <25%),+ (LOQ≦ + <5%),+ (LOQ≦ + <5%),++ (5%≦ ++ <25%),+ (LOQ≦ + <5%),+++ (25%≦ +++ <50%)
"CN(C)C[C@H]1OCCn2nc3ccccc3c21.Cl [Compound 4, (R)-(3,4-dihydro-1H-[1,4]oxazino[4,3-b]indazol-1-yl)-N,N-dimethylmethanaminium chloride]",++ (5%≦ ++ <25%),++ (5%≦ ++ <25%),+ (LOQ≦ + <5%),++ (5%≦ ++ <25%),++++ (50%≦ ++++),++ (5%≦ ++ <25%),+ (LOQ≦ + <5%),+ (LOQ≦ + <5%),+ (LOQ≦ + <5%),++ (5%≦ ++ <25%)
"CNCC1OCCn2nc3ccc(Cl)cc3c21.Cl (stereo not shown) [Compound 5, 1-(9-chloro-3,4-dihydro-1H-[1,4]oxazino[4,3-b]indazol-1-yl)-N-methylmethanaminium chloride]",+ (LOQ≦ + <5%),++ (5%≦ ++ <25%),+ (LOQ≦ + <5%),+ (LOQ≦ + <5%),++ (5%≦ ++ <25%),+ (LOQ≦ + <5%),+ (LOQ≦ + <5%),+ (LOQ≦ + <5%),+ (LOQ≦ + <5%),+ (LOQ≦ + <5%)
"CN(C)CC1OCCn2nc3ccc(Cl)cc3c21.Cl (stereo not shown) [Compound 6, 1-(9-chloro-3,4-dihydro-1H-[1,4]oxazino[4,3-b]indazol-1-yl)-N,N-dimethylmethanaminium chloride]",+ (LOQ≦ + <5%),++ (5%≦ ++ <25%),++ (5%≦ ++ <25%),++ (5%≦ ++ <25%),+++ (25%≦ +++ <50%),+ (LOQ≦ + <5%),+ (LOQ≦ + <5%),++ (5%≦ ++ <25%),+ (LOQ≦ + <5%),+ (LOQ≦ + <5%)
"CNCC1OCCn2nc3ccc(F)cc3c21 (stereo not shown) [Compound 7, 1-(9-fluoro-3,4-dihydro-1H-[1,4]oxazino[4,3-b]indazol-1-yl)-N-methylmethanaminium chloride]",+ (LOQ≦ + <5%),++ (5%≦ ++ <25%),+ (LOQ≦ + <5%),+ (LOQ≦ + <5%),++++ (50%≦ ++++),+ (LOQ≦ + <5%),+ (LOQ≦ + <5%),+ (LOQ≦ + <5%),+ (LOQ≦ + <5%),+ (LOQ≦ + <5%)
"CN(C)CC1OCCn2nc3ccc(F)cc3c21.Cl (stereo not shown) [Compound 8, 1-(9-fluoro-3,4-dihydro-1H-[1,4]oxazino[4,3-b]indazol-1-yl)-N,N-dimethylmethanaminium chloride]",+ (LOQ≦ + <5%),++ (5%≦ ++ <25%),++ (5%≦ ++ <25%),++ (5%≦ ++ <25%),+++ (25%≦ +++ <50%),+ (LOQ≦ + <5%),+ (LOQ≦ + <5%),++ (5%≦ ++ <25%),+ (LOQ≦ + <5%),+ (LOQ≦ + <5%)
"Cl.NCC1OCCn2nc3ccc(F)cc3c21 (stereo not shown) [Compound 9, (9-fluoro-3,4-dihydro-1H-[1,4]oxazino[4,3-b]indazol-1-yl)methanaminium chloride]",++ (5%≦ ++ <25%),++ (5%≦ ++ <25%),+ (LOQ≦ + <5%),++ (5%≦ ++ <25%),++ (5%≦ ++ <25%),+ (LOQ≦ + <5%),+ (LOQ≦ + <5%),+ (LOQ≦ + <5%),+ (LOQ≦ + <5%),+++ (25%≦ +++ <50%)
"CNCC1OCCn2nc3cc(F)ccc3c21 (stereo not shown) [Compound 10, 1-(8-fluoro-3,4-dihydro-1H-[1,4]oxazino[4,3-b]indazol-1-yl)-N-methylmethanaminium]",+ (LOQ≦ + <5%),++ (5%≦ ++ <25%),++ (5%≦ ++ <25%),+ (LOQ≦ + <5%),++++ (50%≦ ++++),+ (LOQ≦ + <5%),+ (LOQ≦ + <5%),++ (5%≦ ++ <25%),+ (LOQ≦ + <5%),+ (LOQ≦ + <5%)
"CN(C)CC1OCCn2nc3cc(F)ccc3c21.Cl (stereo not shown) [Compound 11, 1-(8-fluoro-3,4-dihydro-1H-[1,4]oxazino[4,3-b]indazol-1-yl)-N,N-dimethylmethanaminium]",+ (LOQ≦ + <5%),+ (LOQ≦ + <5%),+ (LOQ≦ + <5%),+ (LOQ≦ + <5%),+++ (25%≦ +++ <50%),+ (LOQ≦ + <5%),+ (LOQ≦ + <5%),++ (5%≦ ++ <25%),++ (5%≦ ++ <25%),+ (LOQ≦ + <5%)
"Cl.NCC1OCCn2nc3cc(F)ccc3c21 (stereo not shown) [Compound 12, (8-fluoro-3,4-dihydro-1H-[1,4]oxazino[4,3-b]indazol-1-yl)methanaminium]",+ (LOQ≦ + <5%),+ (LOQ≦ + <5%),+ (LOQ≦ + <5%),+ (LOQ≦ + <5%),+ (LOQ≦ + <5%),+ (LOQ≦ + <5%),+ (LOQ≦ + <5%),+ (LOQ≦ + <5%),+ (LOQ≦ + <5%),+ (LOQ≦ + <5%)

# Same assay, conditions: i.p. 15 min before behavioral test; 3 doses, most efficacious dose(s) presented
row,SMILES,XG: anxiogenic (probability of class match)
1,"CNC[C@H]1OCCn2nc3ccccc3c21.Cl [Compound 2, (R)-(3,4-dihydro-1H-[1,4]oxazino[4,3-b]indazol-1-yl)-N-methylmethanaminium chloride]",+ (LOQ≦ + <5%)
2,"CN(C)C[C@@H]1OCCn2nc3ccccc3c21 [Compound 3, (S)-(3,4-dihydro-1H-[1,4]oxazino[4,3-b]indazol-1-yl)-N,N-dimethylmethanaminium chloride]",+ (LOQ≦ + <5%)
3,"CN(C)C[C@H]1OCCn2nc3ccccc3c21.Cl [Compound 4, (R)-(3,4-dihydro-1H-[1,4]oxazino[4,3-b]indazol-1-yl)-N,N-dimethylmethanaminium chloride]",+ (LOQ≦ + <5%)
4,"CNCC1OCCn2nc3ccc(Cl)cc3c21.Cl (stereo not shown) [Compound 5, 1-(9-chloro-3,4-dihydro-1H-[1,4]oxazino[4,3-b]indazol-1-yl)-N-methylmethanaminium chloride]",+ (LOQ≦ + <5%)
5,"CN(C)CC1OCCn2nc3ccc(Cl)cc3c21.Cl (stereo not shown) [Compound 6, 1-(9-chloro-3,4-dihydro-1H-[1,4]oxazino[4,3-b]indazol-1-yl)-N,N-dimethylmethanaminium chloride]",+ (LOQ≦ + <5%)
6,"CNCC1OCCn2nc3ccc(F)cc3c21 (stereo not shown) [Compound 7, 1-(9-fluoro-3,4-dihydro-1H-[1,4]oxazino[4,3-b]indazol-1-yl)-N-methylmethanaminium chloride]",+ (LOQ≦ + <5%)
7,"CN(C)CC1OCCn2nc3ccc(F)cc3c21.Cl (stereo not shown) [Compound 8, 1-(9-fluoro-3,4-dihydro-1H-[1,4]oxazino[4,3-b]indazol-1-yl)-N,N-dimethylmethanaminium chloride]",++ (5%≦ ++ <25%)
8,"Cl.NCC1OCCn2nc3ccc(F)cc3c21 (stereo not shown) [Compound 9, (9-fluoro-3,4-dihydro-1H-[1,4]oxazino[4,3-b]indazol-1-yl)methanaminium chloride]",+ (LOQ≦ + <5%)
9,"CNCC1OCCn2nc3cc(F)ccc3c21 (stereo not shown) [Compound 10, 1-(8-fluoro-3,4-dihydro-1H-[1,4]oxazino[4,3-b]indazol-1-yl)-N-methylmethanaminium]",++ (5%≦ ++ <25%)
10,"CN(C)CC1OCCn2nc3cc(F)ccc3c21.Cl (stereo not shown) [Compound 11, 1-(8-fluoro-3,4-dihydro-1H-[1,4]oxazino[4,3-b]indazol-1-yl)-N,N-dimethylmethanaminium]",+ (LOQ≦ + <5%)
11,"Cl.NCC1OCCn2nc3cc(F)ccc3c21 (stereo not shown) [Compound 12, (8-fluoro-3,4-dihydro-1H-[1,4]oxazino[4,3-b]indazol-1-yl)methanaminium]",+ (LOQ≦ + <5%)
